In article PMC12452389, “Arginine-Derived Cationic Surfactants Containing Phenylalanine and Tryptophan: Evaluation of Antifungal Activity, Biofilm Eradication, Cytotoxicity, and Ecotoxicity” (Journal of Xenobiotics, 2025):
Converted amounts (≈) assume the structure as drawn. Like-named read-outs stand apart in the source and are kept apart here. Peptide text beside a SMILES is read from it. * marks the point of attachment. Lauroyl = CCCCCCCCCCCC(=O)*

Key:
[1] = design: method as in PMID 36559096; settings: CO2 Headspace test, pass level 60%; cited from earlier work
[2] = tested on: erythrocytes; test: Hemolytic activity assay; assay type: cell-based; settings: rabbit erythrocytes
Experimental: Fresh rabbit blood was obtained from the Animal Facility of the CID-CSIC (Research and Development Center, Spanish National Research Council, Barcelona, Spain). Sample collection was conducted in strict compliance with the bioethical guidelines established under Spanish legislation. Erythrocytes were isolated by centrifugation (3000 rpm/10 min). The supernatant was discarded, and the erythrocytes were washed three times with PBS (phosphate-buffered saline, pH 7.4) and then resuspended in PBS at a concentration of 8 × 10^9 cells/mL. Subsequently, varying volumes of a concentrated surfactant solution were added to Eppendorf tubes containing 25 μL of erythrocyte suspension. PBS was then added to bring the total volume to 1 mL. The samples were gently shaken for 10 min at room temperature and centrifuged at 10,000 rpm for 5 min. Hemolysis was evaluated by measuring the absorbance of the supernatant at 540 nm and comparing it to that of a 100% hemolysis control (erythrocytes treated with distilled water). The HC50, defined as the surfactant concentration that induces 50% hemolysis, was determined from the concentration–response curves: % hemolysis= Abstest compound/AbsBasal haemolytic activity ×100

[3] = Surface tension, pendant drop tensiometer (cmc, γc); assay type: physicochemical; settings: for cmc: from surface tension
Experimental: Surface tension was measured using a custom-built pendant drop tensiometer, as described in detail in reference. Briefly, a droplet of surfactant solution is formed at the tip of a straight-cut Teflon tube. The image of the droplet is captured using a webcam, and its shape is analyzed by fitting the droplet profile to the Laplace–Young equation [14], To minimize evaporation, all measurements were conducted in a saturated humid atmosphere. The use of this technique is especially well-suited for cationic surfactants because it helps to mitigate complications related to surface adsorption. Critical micelle concentration values (cmc) were determined by finding the intersection of the linear fits before and after the break in the curves.

[4] = design: method as in PMID 36559096; settings: conductivity values; cited from earlier work
[5] = tested on: Candida auris ATCC 21092; test: MIC broth microdilution; assay type: cell-based; settings: C. auris; for MIC: Candidozyma auris, ATCC21092, read-out: MIC
Experimental: (§1) The antimicrobial activity of these compounds was assessed against selected yeast and bacterial strains: Candida albicans ATCC 90028 (CA9), Candida rugosa ATCC 10571 (CR), Candida glabrata ATCC 66032 (CG), Candida parapsilosis ATCC 22019 (CP), Candida tropicalis ATCC 7349 (CT), Candida auris ATCC 21092 (CA), and Cyberlindnera jadinii ATCC 60459. Frozen yeast stocks were plated on Sabouraud agar (SBA) and incubated at 30 °C for 24 h. Three to four colonies from each strain were then suspended in RPMI 1640 (Roswell Park Memorial Institute medium, Sigma- Aldrich, Merck, Darmstadt, Germany) to prepare bacterial dispersions of ~1.5 × 10^6 CFU/mL.
(§2) A broth microdilution assay was used to calculate MIC values. Twofold serially diluted compounds in RPMI 1640 medium (from 256 to 2 μg/mL), were dispensed (100 μL per well) into a 96-well plate. Then, 100 μL of a yeast starter culture was added to each well to reach a final inoculum of 7.5 × 10^5 CFU/mL. Wells containing only nutrient broth without the tested surfactant served as growth controls. Microbial growth was assessed by turbidity, which reflects increases in biomass and cell count. […] To confirm the obtained MICs, 20 μL of 0.015% (w/v) resazurin was dispensed to each well and incubated for 3 h at 30 °C. Metabolic activity was evidenced by a color change from blue to pink, thereby confirming the MIC value.

[6] = tested on: Candida tropicalis ATCC 7349; test: MIC broth microdilution; assay type: cell-based; settings: C. tropicalis; for MIC: Candida tropicalis, ATCC7349, read-out: MIC
Experimental: as §1, §2

[7] = tested on: Candida glabrata ATCC 66032; test: MIC broth microdilution; assay type: cell-based; settings: for MIC: Nakaseomyces glabratus, read-out: MIC
Experimental: as §1, §2

[8] = tested on: Cyberlindnera jadinii ATCC 60459 (C. jardinii); test: MIC broth microdilution; assay type: cell-based; settings: for Selectivity Index (HC50/MIC): C. jardini; for MIC: Williopsis jadinii
Experimental: as §1, §2

[9] = tested on: Candida rugosa ATCC 10571; test: MIC broth microdilution; assay type: cell-based; settings: C. rugosa; for MIC: Diutina rugosa, ATCC10571, read-out: MIC
Experimental: as §1, §2

[10] = tested on: Candida parapsilosis ATCC 22019; test: MIC broth microdilution; assay type: cell-based; settings: C. parapsilosis; for MIC: Lodderomyces parapsilosis, ATCC22019, read-out: MIC
Experimental: as §1, §2

[11] = tested on: Candida albicans ATCC 90028; test: MIC broth microdilution; assay type: cell-based; settings: C. albicans; for MIC: Candida albicans, ATCC90028, read-out: MIC
Experimental: as §1, §2

[12] = tested on: C. albicans biofilms; test: Eradication of mature biofilm, MTT method; assay type: cell-based, Candida albicans; settings: highest concentration tested
Experimental: Candida strains were cultured in SBA at 30 °C for 24 h. Yeast cells were then suspended in RPMI 1640 broth to a final concentration of 1.5 × 10^7 CFU/mL. For mature biofilm formation, 200 μL of these suspensions was transferred to each well of a 48-well microplate and incubated at 30 °C for 24 h. After incubation, the plate was washed with phosphate-buffered saline (PBS) to remove non-adherent cells. Then, surfactant solutions at various concentrations (200 μL), prepared in RPMI 1640, were added to the wells containing the mature biofilms. Plates were incubated again at 30 °C for 24 h. Following this treatment, the RPMI medium was removed, and wells were washed twice with PBS. To assess biofilm viability, 200 μL of MTT solution (3-(4,5-dimethylthiazol-2-yl)-2,5-diphenyltetrazolium bromide) were added to each well, and plates were incubated for 4 h. After incubation, the MTT solution was removed, and 200 μL of dimethyl sulfoxide (DMSO) were added to solubilize the formazan crystals. Absorbance at 540 nm (A540) was then measured using a microplate reader. Controls without the amino acid-based surfactants were included. All experiments were made in quadruplicate, and the results were averaged to ensure accuracy and reproducibility.
In this section, we have tested the ability of these cationic surfactants to eradicate mature fungal biofilms of C. albicans and C. tropicalis. Preformed biofilms of these two strains on 48-well plates were exposed to various concentrations of the synthesized surfactants, and the biofilm was not removed after the treatment was quantified using the MTT method (3-[4,5-dimethylthiazol-2-yl]-2,5 diphenyl tetrazolium bromide) (Figure 4). This method detects viable and metabolically active cells within the biofilm by measuring the reduction in MTT to formazan by active mitochondrial enzymes.

[13] = tested on: Daphnia magna; test: Acute toxicity, immobilization test; assay type: in vivo
Experimental: Aquatic toxicity evaluation was performed using Daphnia magna following established protocols. This bioassay method employs laboratory-cultured freshwater microcrustaceans to evaluate surfactant toxicity in aquatic environments. Test organisms were utilized during their initial 24 h life stage to ensure consistency. The endpoint measurement focused on mobility impairment, specifically the loss of swimming capability after gentle stimulation lasting 15 s. Testing conditions included controlled water chemistry parameters: pH maintained at 8.0, calcium-to-magnesium ratio of 4:1, and total hardness of 250 mg/L as CaCO3. All experiments were conducted under dark conditions at 20 °C. The experimental design incorporated ten test concentrations for each surfactant compound, distributed in geometric progression. Each concentration level included 20 Daphnia specimens distributed across four replicate groups of five organisms each. Mobility assessment occurred at 48 h post-exposure, with immobilization percentages plotted against concentration using probability–logarithmic scaling.

[14] = tested on: Vibrio fischeri; test: Luminescence reduction test; assay type: cell-based; settings: Aliivibrio fischeri, 0.25 h; Vibrio fischeri bioluminescence, 15 min of exposure; 95% confidence intervals in parentheses
Experimental: Ecotoxicological assessment of cationic surfactants was conducted using the Vibrio fischeri luminescent bioassay. This method relies on the measurement of decreased bioluminescent output from marine bacteria following contact with potentially toxic substances. Regression analysis was used to determine the concentration of the compound that caused a 50% reduction (EC50) in the amount of light emitted by the bacteria. The stated toxicity statistics given are based on the bacteria being exposed to the ionic liquid solution for 15 min at 15 °C.

[15] = ATCC66032, 24 h, C. glabrata, RPMI 1640, 24 h, 30 °C
[16] = ATCC66032, C. glabrata, value in parentheses
[17] = ATCC60459, C. jardinii, RPMI 1640, 24 h, 30 °C, read-out: MIC
[18] = ATCC60459, C. jardinii, value in parentheses, read-out: MIC

Compound | HC50 ([2]; 10 min, room temperature) | HC50 ([2]; value in parentheses) | γc (surface tension at the cmc) [3] | cmc [3] | cmc Cond [4] | MIC ([5]; RPMI 1640, 24 h, 30 °C) | MIC ([5]; value in parentheses) | MIC ([6]; RPMI 1640, 24 h, 30 °C) | MIC ([6]; value in parentheses) | MIC [7, 15] | MIC [7, 16] | MIC ([9]; RPMI 1640, 24 h, 30 °C) | MIC ([9]; value in parentheses) | MIC ([10]; RPMI 1640, 24 h, 30 °C) | MIC ([10]; value in parentheses) | MIC ([11]; RPMI 1640, 24 h, 30 °C) | MIC ([11]; value in parentheses) | MIC [8, 17] | MIC [8, 18] | further results
CCCCCCCCCCCC(=O)NC(Cc1c[nH]c2ccccc12)C(=O)NC(CCCNC(=N)N)C(=O)OC (stereo not drawn) [C12TAM] (Lauroyl-Trp-Arg-OMe; configuration not given here) | 24 ± 0.8 µg/mL | 40 ± 1.6 µM | 32.1 ± 2.3 mNm^−1 | 0.65 mM | 0.5 mM | 16 µg/mL | 27 µM | 16 µg/mL | 27 µM | 16 µg/mL | 27 µM | 8 µg/mL | 13 µM | 16 µg/mL | 27 µM | 32 µg/mL | 54 µM |  |  | biodegradation [1]: over 60%; Selectivity Index (HC50/MIC) ([5]; Table S1): 1.4; Selectivity Index (HC50/MIC) ([6]; Table S1): 1.4; Selectivity Index (HC50/MIC) ([7]; C. glabrata, Table S1): 1.4; Selectivity Index (HC50/MIC) ([8]; Table S1): 0.7; MIC ([8]; ATCC60459): 54 µM; MIC ([8]; ATCC60459, 24 h): 32 µg/mL; Selectivity Index (HC50/MIC) ([9]; Table S1): 3; Selectivity Index (HC50/MIC) ([10]; Table S1): 1.4; Selectivity Index (HC50/MIC) ([11]; Table S1): 0.7; reduction of the metabolic activity of the biofilm [12]: less than 65%
CCCCCCCCNC(=O)C(CCCNC(=N)N)NC(=O)C(N)Cc1ccccc1 (centres unmarked) [PANHC8] |  |  |  |  |  | > 256 µg/mL | > 512 µM | 256 µg/mL | 512 µM | 256 µg/mL | 512 µM | > 256 µg/mL | > 512 µM | 256 µg/mL | 512 µM | > 256 µg/mL | > 512 µM | > 256 µg/mL | > 512 µM | 
CCCCCCCCCCCCCCNC(=O)C(CCCNC(=N)N)NC(=O)C(N)Cc1c[nH]c2ccccc12 (centres unmarked) [TANHC14] | 16 ± 0.18 µg/mL | 26 ± 0.3 µM | 32.8 ± 1.2 mNm^−1 | 0.7 mM | 0.3 mM | 16 µg/mL | 25 µM | 4 µg/mL | 7 µM | 8 µg/mL | 14 µM | 4 µg/mL | 7 µM | 16 µg/mL | 25 µM | 16 µg/mL | 25 µM | 8 µg/mL | 14 µM | EC50 ([13]; Daphnia magna, 48 h): 0.85 µg/mL (≈ 1.53 µM); EC50 [14]: 2.6 µg/mL (≈ 4.68 µM); Selectivity Index (HC50/MIC) ([5]; Table S2): 1.1; Selectivity Index (HC50/MIC) ([6]; Table S2): 3.7; Selectivity Index (HC50/MIC) ([7]; C. glabrata, Table S2): 1.9; Selectivity Index (HC50/MIC) ([8]; Table S2): 1.9; Selectivity Index (HC50/MIC) ([9]; Table S2): 3.7; Selectivity Index (HC50/MIC) ([10]; Table S2): 1.1; Selectivity Index (HC50/MIC) ([11]; Table S2): 1.1
dodecyl dimethyl ammonium bromide [DDAB, reference compound] |  |  |  |  |  |  |  |  |  |  |  |  |  |  |  |  |  |  |  | EC50 ([13]; Daphnia magna immobilization, 48 h of exposure, 95% confidence intervals in parentheses): 0.15 (0.14–0.17) μg/mL
